According to patent US20170190671A1, “BIS(ARYL)CATECHOL DERIVATIVES AS HERBICIDES” (E I DU PONT DE NEMOURS AND COMPANY, priority 2014, published 2017):

Legend:
[1] = system: pigweed (Amaranthus retroflexus); assay: Test A preemergence; assay type: in vivo; settings: Amaranthus retroflexus, pre-emergence, 240 h; for pest or weed control at 125 g/ha: 125 g ai/ha
In short: (§1)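 Compounds in non-phytotoxic solvent with surfactant applied as soil spray preemergence, or postemergence to plants 2-10 cm at one- to two-leaf stage, in loam/sand. After approximately 10 days in greenhouse, injury rated visually versus untreated controls, 0 (no effect) to 100 (complete control).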

[2] = system: large (Lg) crabgrass (Digitaria sanguinalis); assay: Test A preemergence; assay type: in vivo; settings: 0 to 100 scale
In short: as §1

[3] = system: giant foxtail (Setaria faberii); assay: Test A preemergence; assay type: in vivo; settings: Setaria faberi, pre-emergence, 240 h; for pest or weed control at 125 g/ha: 125 g ai/ha
In short: as §1

[4] = system: barnyardgrass (Echinochloa crus-galli); assay: Test A preemergence; assay type: in vivo; settings: Echinochloa crus-galli, pre-emergence, 240 h; for pest or weed control at 125 g/ha: 125 g ai/ha
In short: as §1

[5] = system: wheat (Triticum aestivum); assay: Test A preemergence; assay type: in vivo; settings: 0 to 100 scale
In short: as §1

[6] = system: morningglory (Ipomoea spp.); assay: Test A preemergence; assay type: in vivo; settings: 0 to 100 scale
In short: as §1

corn (Zea mays) [7] = assay: Test A preemergence; assay type: in vivo; settings: 0 to 100 scale
In short: as §1

[8] = system: velvetleaf (Abutilon theophrasti); assay: Test A preemergence; assay type: in vivo; settings: 0 to 100 scale
In short: as §1

[9] = system: pigweed (Amaranthus retroflexus); assay: Test A postemergence; assay type: in vivo; settings: Amaranthus retroflexus, post-emergence, 240 h, 0 to 100 scale, read-out: Plant response rating, Pigweed; for pest or weed control at 125 g/ha: 125 g ai/ha
In short: as §1

[10] = system: large (Lg) crabgrass (Digitaria sanguinalis); assay: Test A postemergence; assay type: in vivo; settings: 0 to 100 scale
In short: as §1

[11] = system: giant foxtail (Setaria faberii); assay: Test A postemergence; assay type: in vivo; settings: Setaria faberi, post-emergence, 240 h, 0 to 100 scale, read-out: Plant response rating, Foxtail, Giant; for pest or weed control at 125 g/ha: 125 g ai/ha
In short: as §1

[12] = system: barnyardgrass (Echinochloa crus-galli); assay: Test A postemergence; assay type: in vivo; settings: Echinochloa crus-galli, post-emergence, 240 h, 0 to 100 scale, read-out: Plant response rating, Barnyardgrass; for pest or weed control at 125 g/ha: 125 g ai/ha
In short: as §1

[13] = system: wheat (Triticum aestivum); assay: Test A postemergence; assay type: in vivo; settings: Triticum aestivum, post-emergence, 240 h, 0 to 100 scale, read-out: Plant response rating, Wheat; for plant injury at 125 g/ha: 125 g ai/ha
In short: as §1

[14] = system: morningglory (Ipomoea spp.); assay: Test A postemergence; assay type: in vivo; settings: 0 to 100 scale
In short: as §1

corn (Zea mays) [15] = assay: Test A postemergence; assay type: in vivo; settings: Zea mays, post-emergence, 240 h, 0 to 100 scale; for Corn plant response rating (crop injury, 0 = no effect, 100 = complete kill) at 125 g/ha: 125 g ai/ha
In short: as §1

[16] = system: velvetleaf (Abutilon theophrasti); assay: Test A postemergence; assay type: in vivo; settings: 0 to 100 scale
In short: as §1

[17] = system: ducksalad (Heteranthera limosa); assay: Test B flooded paddy; assay type: in vivo; settings: Heteranthera limosa, 336 h; 250 g ai/ha, Flood, 13 to 15 days, scale 0 (no effect) to 100 (complete control); read-out: Plant response rating, Ducksalad
Excerpt: (§2) At time of treatment, test pots were flooded to 3 cm above the soil surface, treated by application of test compounds directly to the paddy water, and then maintained at that water depth for the duration of the test. Treated plants and controls were maintained in a greenhouse for 13 to 15 days, after which time all species were compared to controls and visually evaluated. […] A dash (-) response means no test result.

[18] = system: barnyardgrass (Echinochloa crus-galli); assay: Test B flooded paddy; assay type: in vivo; settings: Echinochloa crus-galli, 336 h; 250 g ai/ha, Flood, 13 to 15 days, scale 0 (no effect) to 100 (complete control); read-out: Plant response rating, Barnyardgrass
Excerpt: as §2

rice (Oryza sativa) = assay: Test B flooded paddy; assay type: in vivo; settings: Oryza sativa, 336 h; 250 g ai/ha, Flood, 13 to 15 days, scale 0 (no effect) to 100 (complete control); read-out: Plant response rating, Rice
Excerpt: as §2

[19] = system: sedge, umbrella (small-flower umbrella sedge, Cyperus difformis); assay: Test B flooded paddy; assay type: in vivo; settings: Cyperus difformis, 336 h; 250 g ai/ha, Flood, 13 to 15 days, scale 0 (no effect) to 100 (complete control); read-out: Plant response rating, Sedge, Umbrella
Excerpt: as §2

kochia (Kochia scoparia) [20] = assay: Test A preemergence; assay type: in vivo; settings: Bassia scoparia, pre-emergence, 240 h, 0 to 100 scale (0 no effect, 100 complete control), read-out: Kochia plant response rating
In short: as §1

[21] = system: Italian ryegrass (Lolium multiflorum); assay: Test A preemergence; assay type: in vivo; settings: Lolium multiflorum, pre-emergence, 240 h, 0 to 100 scale (0 no effect, 100 complete control), read-out: Ryegrass, Italian plant response rating
In short: as §1

[22] = system: ragweed (common ragweed, Ambrosia elatior); assay: Test A preemergence; assay type: in vivo; settings: Ambrosia artemisiifolia, pre-emergence, 240 h, 0 to 100 scale (0 no effect, 100 complete control), read-out: Ragweed plant response rating
In short: as §1

[23] = system: galium (catchweed bedstraw, Galium aparine); assay: Test A postemergence; assay type: in vivo; settings: Galium, post-emergence, 240 h, 0 to 100 scale, read-out: Plant response rating, Galium
In short: as §1

kochia (Kochia scoparia) [24] = assay: Test A postemergence; assay type: in vivo; settings: Bassia scoparia, post-emergence, 240 h, 0 to 100 scale, read-out: Plant response rating, Kochia
In short: as §1

[25] = system: blackgrass (Alopecurus myosuroides); assay: Test A postemergence; assay type: in vivo; settings: Alopecurus myosuroides, post-emergence, 240 h, 0 to 100 scale, read-out: Plant response rating, Blackgrass
In short: as §1

[26] = system: Italian ryegrass (Lolium multiflorum); assay: Test A postemergence; assay type: in vivo; settings: Lolium multiflorum, post-emergence, 240 h, 0 to 100 scale, read-out: Plant response rating, Ryegrass, Italian
In short: as §1

[27] = system: ragweed (common ragweed, Ambrosia elatior); assay: Test A postemergence; assay type: in vivo; settings: Ambrosia artemisiifolia, post-emergence, 240 h, 0 to 100 scale, read-out: Plant response rating, Ragweed
In short: as §1

[28] = 0 to 100 scale, read-out: Plant response rating, Barnyardgrass

N#Cc1cccc(Oc2ncc(F)cn2)c1Oc1ncc(F)cn1 [Compound 2, 2,3-bis[(5-fluoro-2-pyrimidinyl)oxy]benzonitrile]
pest or weed control at 125 g/ha ([1]; 0 to 100 scale, read-out: Plant response rating, Pigweed): 100% | pest or weed control at 500 g/ha ([1]; 500 g ai/ha, 0 to 100 scale, read-out: Plant response rating, Pigweed): 100% | Plant response rating, Crabgrass, Large ([2]; 125 g ai/ha): 100 | Plant response rating, Crabgrass, Large ([2]; 500 g ai/ha): 100 | pest or weed control at 125 g/ha ([3]; 0 to 100 scale, read-out: Plant response rating, Foxtail, Giant): 100% | pest or weed control at 500 g/ha ([3]; 500 g ai/ha, 0 to 100 scale, read-out: Plant response rating, Foxtail, Giant): 100% | pest or weed control at 125 g/ha [4, 28]: 20% | pest or weed control at 500 g/ha ([4]; 500 g ai/ha, 0 to 100 scale, read-out: Plant response rating, Barnyardgrass): 100% | Plant response rating, Wheat ([5]; 125 g ai/ha): 20 | Plant response rating, Wheat ([5]; 500 g ai/ha): 30 | Plant response rating, Morningglory ([6]; 125 g ai/ha): 50 | Plant response rating, Morningglory ([6]; 500 g ai/ha): 100 | Plant response rating, Corn (corn (Zea mays) [7]; 125 g ai/ha): 20 | Plant response rating, Corn (corn (Zea mays) [7]; 500 g ai/ha): 60 | Plant response rating, Velvetleaf ([8]; 125 g ai/ha): 40 | Plant response rating, Velvetleaf ([8]; 500 g ai/ha): 100 | pest or weed control at 125 g/ha [9]: 90% | pest or weed control at 500 g/ha ([9]; 500 g ai/ha): 100% | Plant response rating, Crabgrass, Large ([10]; 125 g ai/ha): 30 | Plant response rating, Crabgrass, Large ([10]; 500 g ai/ha): 100 | pest or weed control at 125 g/ha [11]: 40% | pest or weed control at 500 g/ha ([11]; 500 g ai/ha): 100% | pest or weed control at 125 g/ha [12]: 20% | pest or weed control at 500 g/ha ([12]; 500 g ai/ha): 90% | plant injury at 125 g/ha [13]: 20% | plant injury at 500 g/ha ([13]; 500 g ai/ha): 90% | Plant response rating, Morningglory ([14]; 125 g ai/ha): 60 | Plant response rating, Morningglory ([14]; 500 g ai/ha): 90 | Corn plant response rating (crop injury, 0 = no effect, 100 = complete kill) at 125 g/ha (corn (Zea mays) [15]): 0% | Corn plant response rating (crop injury, 0 = no effect, 100 = complete kill) at 500 g/ha (corn (Zea mays) [15]; 500 g ai/ha): 90% | Plant response rating, Velvetleaf ([16]; 125 g ai/ha): 70 | Plant response rating, Velvetleaf ([16]; 500 g ai/ha): 90 | pest or weed control at 250 g/ha [17]: 70% | pest or weed control at 250 g/ha [18]: 20% | plant injury at 250 g/ha (rice (Oryza sativa)): 15% | pest or weed control at 250 g/ha [19]: 60%

Fc1cnc(Oc2c(F)ccc(F)c2Oc2ncc(Cl)cn2)nc1 [Compound 28]
pest or weed control at 31 g/ha ([1]; 31 g ai/ha, 0 to 100 scale (0 no effect, 100 complete control), read-out: Pigweed plant response rating): 50% | pest or weed control at 125 g/ha ([1]; 0 to 100 scale (0 no effect, 100 complete control), read-out: Pigweed plant response rating): 80% | pest or weed control at 31 g/ha ([3]; 31 g ai/ha, 0 to 100 scale (0 no effect, 100 complete control), read-out: Foxtail, Giant plant response rating): 10% | pest or weed control at 125 g/ha ([3]; 0 to 100 scale (0 no effect, 100 complete control), read-out: Foxtail, Giant plant response rating): 40% | pest or weed control at 31 g/ha ([4]; 31 g ai/ha, 0 to 100 scale (0 no effect, 100 complete control), read-out: Barnyardgrass plant response rating): 0% | pest or weed control at 125 g/ha [4, 28]: 10% | pest or weed control at 31 g/ha (kochia (Kochia scoparia) [20]; 31 g ai/ha): 0% | pest or weed control at 125 g/ha (kochia (Kochia scoparia) [20]; 125 g ai/ha): 20% | pest or weed control at 31 g/ha ([21]; 31 g ai/ha): 0% | pest or weed control at 125 g/ha ([21]; 125 g ai/ha): 0% | pest or weed control at 31 g/ha ([22]; 31 g ai/ha): 0% | pest or weed control at 125 g/ha ([22]; 125 g ai/ha): 0% | melting point: 94 to 98 °C | pest or weed control at 31 g/ha ([9]; 31 g ai/ha): 50% | pest or weed control at 125 g/ha [9]: 60% | pest or weed control at 31 g/ha ([11]; 31 g ai/ha): 0% | pest or weed control at 125 g/ha [11]: 20% | pest or weed control at 31 g/ha ([23]; 31 g ai/ha): 20% | pest or weed control at 125 g/ha ([23]; 125 g ai/ha): 70% | pest or weed control at 31 g/ha ([12]; 31 g ai/ha): 0% | pest or weed control at 125 g/ha [12]: 0% | plant injury at 31 g/ha ([13]; 31 g ai/ha): 0% | plant injury at 125 g/ha [13]: 0% | Corn plant response rating (crop injury, 0 = no effect, 100 = complete kill) at 31 g/ha (corn (Zea mays) [15]; 31 g ai/ha): 0% | Corn plant response rating (crop injury, 0 = no effect, 100 = complete kill) at 125 g/ha (corn (Zea mays) [15]): 0% | pest or weed control at 31 g/ha (kochia (Kochia scoparia) [24]; 31 g ai/ha): 30% | pest or weed control at 125 g/ha (kochia (Kochia scoparia) [24]; 125 g ai/ha): 70% | pest or weed control at 31 g/ha ([25]; 31 g ai/ha): 0% | pest or weed control at 125 g/ha ([25]; 125 g ai/ha): 20% | pest or weed control at 31 g/ha ([26]; 31 g ai/ha): 0% | pest or weed control at 125 g/ha ([26]; 125 g ai/ha): 0% | pest or weed control at 31 g/ha ([27]; 31 g ai/ha): 10% | pest or weed control at 125 g/ha ([27]; 125 g ai/ha): 30%
